Measured values reported in ChEMBL document CHEMBL1128989, “-Methanesulfonyl-L-valine as a novel, unnatural amino acid surrogate for P2 in the design of HIV protease inhibitors” (Bioorg Med Chem Lett, 1996).

Assays:
[1] = test system: Human immunodeficiency virus 1; experiment: Antiviral activity against PBMC infected with Human immunodeficiency virus type 1 NL4-3 isolate.; assay type: functional
[2] = molecular target: Human immunodeficiency virus type 1 protease (Human immunodeficiency virus 1, UniProt Q72874); experiment: Inhibitory activity against P2 site in HIV protease.
[3] = Ratio of IC50/Ki was determined

Compound	CIC IC50 [1]	Ki [2]	Ratio [3]
CSC(C)(C)[C@H](NC(=O)c1ccc2ccccc2n1)C(=O)N[C@@H](Cc1ccccc1)[C@H](O)CN1C[C@H]2CCCC[C@H]2C[C@H]1C(=O)NC(C)(C)C	27 nM	2.59 nM	10
CC(C)(C)NC(=O)[C@@H]1C[C@@H]2CCCC[C@@H]2CN1C[C@@H](O)[C@H](Cc1ccccc1)NC(=O)[C@@H](NC(=O)OCc1ccccc1)C(C)(C)S(C)(=O)=O	11 nM	0.162 nM	68
CC(C)(C)NC(=O)[C@@H]1C[C@@H]2CCCC[C@@H]2CN1C[C@@H](O)[C@H](Cc1ccccc1)NC(=O)[C@@H](NC(=O)c1ccc2ccccc2n1)C(C)(C)S(C)(=O)=O	4.9 nM	0.172 nM	28
CC(C)(C)NC(=O)[C@@H]1C[C@@H]2CCCC[C@@H]2CN1C[C@@H](O)[C@H](Cc1ccccc1)NC(=O)[C@H](CC(N)=O)NC(=O)c1ccc2ccccc2n1	23 nM	–	–
CC(C)[C@H](NC(=O)c1ccc2ccccc2n1)C(=O)N[C@@H](Cc1ccccc1)[C@H](O)CN1C[C@H]2CCCC[C@H]2C[C@H]1C(=O)NC(C)(C)C	54 nM	0.55 nM	98
CC(C)(C)NC(=O)[C@@H]1C[C@@H]2CCCC[C@@H]2CN1C[C@@H](O)[C@H](Cc1ccccc1)NC(=O)[C@H](CS(C)(=O)=O)NC(=O)c1ccc2ccccc2n1	22 nM	0.113 nM	195
